Experimental data: patent US20150010474A1, “Compounds And Methods For Selective Imaging And/Or Ablation” (Auckland Uniservices Limited, priority 2011, published 2015)

Legend:
[1] = biological target: T1, CO-Frp (V.h) (Vibrio harveyi, UniProt Q56691); assay: Initial rate of metabolism by purified recombinant bacterial nitroreductase (NADPH consumption, UV/Vis); format: biochemical; conditions: compound 500 μM, NADPH 200 μM, 10 mM Tris-Cl pH 7.0; μmol NADPH consumed per mg enzyme per minute
T1 construct: made in house
Method: (§1) The relative initial rates of reductive metabolism of the nitro moiety of test compounds by bacterial nitroreductase's can be measured experimentally by incubating the test compound at near-saturating concentration (determined empirically) with the purified recombinant bacterial nitroreductase enzymes in the presence of NADPH co-factor. UV/Vis spectroscopy is used to measure consumption of the co-factor, indicating metabolism of the test compound by the nitroreductase.
(§2) Compounds 67, 93 and 97 (500 μM) were added to NADPH (200 μM) in 10 mM Tris-Cl pH 7.0. Reactions were initiated by enzyme addition (between 5 and 20 μg per reaction). Rates represent μmol of NADPH consumed per mg enzyme added per minute.

[2] = biological target: T2, NfrA (B.s) (Bacillus subtilis, UniProt P39605); assay: as above; format: biochemical; conditions: compound 500 μM, NADPH 200 μM, 10 mM Tris-Cl pH 7.0; μmol NADPH consumed per mg enzyme per minute
T2 construct: made in house
Method: as §1, §2

[3] = biological target: T3, NfsA (E.c) (Escherichia coli, UniProt P17117); assay: as above; format: biochemical; conditions: compound 500 μM, NADPH 200 μM, 10 mM Tris-Cl pH 7.0; μmol NADPH consumed per mg enzyme per minute
T3 construct: made in house
Method: as §1, §2

[4] = tested on: HCT116 cells overexpressing the nitroreductase NfsA from E. coli; assay: Inhibition of cell proliferation, low cell density IC50 assay; format: cell-based, human; conditions: for IC50: Homo sapiens, HCT-116, 4 hour drug exposure, washing and regrowth for 5 days; for WT:NfsA: WT IC50/NfsA IC50
Method: IC50 values were determined as the concentration of prodrug required to inhibit cell growth by 50% of untreated controls following 4 hour drug exposure, with washing and regrowth for 5 days. WT:NfsA ratios were determined as the WT IC50/NfsA IC50.

[5] = tested on: HCT-116 cells stably expressing E. coli NfsA; assay: Flow cytometry of metabolism and cellular retention (EF5 antibody); format: cell-based, human; conditions: 20 μM; for Metabolism and cellular retention by FACS, HCT-116 NfsA cells (FIG. 3): 2 hours, oxic conditions (21% O2, 5% CO2)
Method: FIG. 3 illustrates the results of flow cytometry analysis of HCT-116 cells stably expressing E. coli NfsA relative to HCT-116 wild-type cells after in vitro exposure to 20 μM of compounds 15, 93 and 67 for 2 hours. 1×10^6 cells were incubated with test compounds under oxic conditions. Samples were fixed and stained with EF5 antibody Alexa 488 ELK3.51 at 100 μg/ml. Samples were then analysed on a Becton Dickinson FACscan flow cytometer.
(§3) FIG. 4 illustrates the results of a second independent flow cytometry analysis of compound 15 and 93 metabolism and binding in wild-type HCT-116 cells, HCT-116 cells stably over-expressing cytochrome P450 reductase (CYPOR), a human one-electron reductase known to metabolise nitroheterocyclic and nitroaromatic compounds, or HCT-116 cells stably expressing the bacterial nitroreductase E. coli NfsA. 1×10^6HCT-116 cells were seeded in 6 well plates underaerobic conditions (21% O2, 5% CO2). After 2 h incubation, drug free control (wild-type HCT-116, foreground), 20 μM (wild-type HCT-116, second plot), 100 μM (wild-type HCT-116, third plot), 20 μM (HCT-116-CYPOR, forth plot), 100 μM (HCT-116-CYPOR, fifth plot) or 20 μM (HCT-116-NfsA, sixth plot) of compound 15 or 93 was added. After 2 h incubation cells were harvested and fixed with paraformaldehyde before being incubated overnight with 100 μl of 75 μg/ml EF5 CY5 conjugated antibody. Samples were then analysed on a Becton Dickinson FACscan flow cytometer.

[6] = tested on: HCT-116 cells stably over-expressing cytochrome P450 reductase (CYPOR); assay: Flow cytometry of metabolism and binding (EF5 antibody); format: cell-based, human; conditions: 2 h
Method: as §3
FIG. 5 illustrates the results of flow cytometry analysis of HCT-116 cells stably over-expressing cytochrome P450 reductase (CYPOR), a human one-electron reductase known to metabolise nitroheterocyclic and nitroaromatic compounds. 1×10^6HCT-116-CYPOR cells were seeded in 6 well plates in aerobic, anoxic and 0.2% oxygen conditions designed to replicate the lower limit of pathological hypoxia observed in human tumours. After 2 h incubation, drug free control (foreground), 20 μM (middle) or 100 μM (background) of compound 15 or 67 was added. After 2 h incubation cells were harvested and fixed with paraformaldehyde before being incubated overnight with 100 μl of 75 μg/ml EF5 CY5 conjugated antibody. Samples were then analysed on a Becton Dickinson FAC scan flow cytometer.
FIG. 6 illustrates the results of flow cytometry analysis of compound 15 and 93 metabolism and binding in wild-type HCT-116 cells and HCT-116 cells stably over-expressing cytochrome P450 reductase (CYPOR), a human one-electron reductase known to metabolise nitroheterocyclic and nitroaromatic compounds. 1×10^6 HCT-116 cells were seeded in 6 well plates underanoxic conditions. After 2 h incubation, drug free control (wild-type HCT-116, foreground), 20 μM (wild-type HCT-116, second plot), 100 μM (wild-type HCT-116, third plot), 20 μM (HCT-116-CYPOR, forth plot) or 100 μM (HCT-116-CYPOR, fifth plot) of compound 15 or 93 was added. After 2 h incubation cells were harvested and fixed with paraformaldehyde before being incubated overnight with 100 μl of 75 μg/ml EF5 CY5 conjugated antibody. Samples were then analysed on a Becton Dickinson FACscan flow cytometer.

[7] = tested on: human solid tumour xenograft NCI-H1299 (WT); assay: Hypoxia-dependent binding by ex vivo flow cytometry with pimonidazole co-staining; format: in vivo, NIH-III nude mice; conditions: 60 mg/kg i.p.; tumours excised after 120 minutes, single cell suspension
Method: FIG. 11 illustrates the absence of hypoxic-dependent binding of compound 67 and compound 93 by flow cytometry in the human solid tumour xenograft NCI-H1299, with reference to hypoxia staining by compound 15 and pimonidazole (Hypoxyprobe™) as internal standards (positive controls). NCI-H1299 WT tumours were inoculated subcutaneously onto the flank of NIH-III nude mice. When the mixed tumours reached approximately 800 mm^3, mice were dosed i.p. with 60 mg/kg of pimonidazole, and 60 minutes later dosed with either 60 mg/kg of compound 15, or 60 mg/kg of compound 67, or 60 mg/kg of compound 93. After 120 minutes the tumours were excised and enzyme digested to form a single cell suspension before fixation in ice cold 80% ethanol. Single cell immunodetection of bound adducts of compounds was performed using a monoclonal antibody (Mab1, hybridoma clone 4.3.11.3) conjugated to Alexa-488 (Ex/Em 499/519; green) for the detection of pimonidazole adducts, and monoclonal antibody ELK3-51 directly conjugated to the fluorophore CY5 (Ex/Em 650/670 nm; red) for detection of adducts formed by compound 15 or compound 67 or compound 93. The ex-vivo tumour cell samples were analysed on a Becton Dickinson FACscan flow cytometer using FACS Diva software. Integrated fluorescence measurements were recorded for 10,000 single non-debris events. Fluorescence emission was monitored at 530 nm±20 and 670-700 nm for detection of Alexa-488 and CY5 conjugated monoclonal antibodies, respectively.

T2 sequence (P39605 whole entry): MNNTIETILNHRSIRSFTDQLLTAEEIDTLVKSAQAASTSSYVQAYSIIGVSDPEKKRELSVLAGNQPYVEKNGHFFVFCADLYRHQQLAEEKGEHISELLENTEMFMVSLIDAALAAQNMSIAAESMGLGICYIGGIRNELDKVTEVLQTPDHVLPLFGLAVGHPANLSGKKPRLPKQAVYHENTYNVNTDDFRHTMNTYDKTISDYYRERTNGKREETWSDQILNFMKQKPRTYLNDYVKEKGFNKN
T3 sequence (P17117 whole entry): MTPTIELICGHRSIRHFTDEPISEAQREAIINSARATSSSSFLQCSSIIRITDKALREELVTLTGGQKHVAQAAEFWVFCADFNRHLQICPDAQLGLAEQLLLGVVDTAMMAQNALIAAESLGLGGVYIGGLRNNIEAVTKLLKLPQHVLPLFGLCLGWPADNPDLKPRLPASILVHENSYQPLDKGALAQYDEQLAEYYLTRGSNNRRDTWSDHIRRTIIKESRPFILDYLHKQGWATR
T1 sequence (Q56691 whole entry): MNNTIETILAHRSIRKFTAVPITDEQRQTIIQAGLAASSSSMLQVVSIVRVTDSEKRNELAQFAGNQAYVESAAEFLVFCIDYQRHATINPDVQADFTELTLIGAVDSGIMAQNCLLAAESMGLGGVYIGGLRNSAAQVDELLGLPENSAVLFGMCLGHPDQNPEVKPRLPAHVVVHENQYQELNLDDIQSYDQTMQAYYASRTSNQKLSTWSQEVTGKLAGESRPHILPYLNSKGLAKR

SMILES	Rate of metabolism by CO-Frp (V.h) [1]	Rate of metabolism by NfrA (B.s) [2]	Rate of metabolism by NfsA (E.c) [3]	IC50 [4]	WT:NfsA [4]	Metabolism and cellular retention by FACS, HCT-116 NfsA cells (FIG. 3) [5]	Metabolism and binding by FACS, HCT-116-CYPOR cells, 0.2% oxygen (FIG. 5) ([6]; 20 μM or 100 μM, 0.2% oxygen)	Metabolism and binding by FACS, HCT-116-CYPOR cells, aerobic (FIG. 5) ([6]; 20 μM or 100 μM, aerobic)	Hypoxia-dependent binding in NCI-H1299 WT tumours, flow cytometry (FIG. 11) [7]	Metabolism and cellular retention by FACS, HCT-116 NfsA cells (FIG. 4) ([5]; 2 h, aerobic conditions)	Metabolism and binding by FACS, HCT-116-CYPOR cells (FIG. 4) ([6]; 20 μM and 100 μM, aerobic conditions)	Metabolism and binding by FACS, HCT-116-CYPOR cells, anoxia (FIG. 6) ([6]; 20 μM and 100 μM, anoxic conditions)
Cc1ncc([N+](=O)[O-])n1CC(=O)NCC(F)(F)C(F)(F)F [Compound 67, 2-(2-methyl-5-nitro-1H-imidazol-1-yl)-N-(2,2,3,3,3-pentafluoropropyl)acetamide]	1.1 µmol/min/mg	1.7 µmol/min/mg	2.7 µmol/min/mg	19 µM	332	excellent substrates for E. coli NfsA	negligible metabolism and binding	negligible metabolism and binding	unable to bind to and thus detect pimonidazole-positive (hypoxic) tumour cells			
O=C(Cn1cnc([N+](=O)[O-])c1)NCC(F)(F)C(F)(F)F [Compound 93, 2-(4-nitro-1H-imidazol-1-yl)-N-(2,2,3,3,3-pentafluoropropyl)acetamide]	12.2 µmol/min/mg	7.5 µmol/min/mg	7.6 µmol/min/mg	14.5 µM	100	excellent substrates for E. coli NfsA			unable to bind to and thus detect pimonidazole-positive (hypoxic) tumour cells	excellent substrates for E. coli NfsA	minimal metabolism and binding	negligible metabolism and binding
